What was measured:
Type in all cases: cell-based
androgen receptor (AR) = molecular target: T1, androgen receptor (AR) (Homo sapiens, UniProt P10275); assay: Androgen receptor degradation, western blot; conditions: AR degradation potency, cell line not stated
T1 construct: endogenous in cells
T1 sequence (P10275 1-920): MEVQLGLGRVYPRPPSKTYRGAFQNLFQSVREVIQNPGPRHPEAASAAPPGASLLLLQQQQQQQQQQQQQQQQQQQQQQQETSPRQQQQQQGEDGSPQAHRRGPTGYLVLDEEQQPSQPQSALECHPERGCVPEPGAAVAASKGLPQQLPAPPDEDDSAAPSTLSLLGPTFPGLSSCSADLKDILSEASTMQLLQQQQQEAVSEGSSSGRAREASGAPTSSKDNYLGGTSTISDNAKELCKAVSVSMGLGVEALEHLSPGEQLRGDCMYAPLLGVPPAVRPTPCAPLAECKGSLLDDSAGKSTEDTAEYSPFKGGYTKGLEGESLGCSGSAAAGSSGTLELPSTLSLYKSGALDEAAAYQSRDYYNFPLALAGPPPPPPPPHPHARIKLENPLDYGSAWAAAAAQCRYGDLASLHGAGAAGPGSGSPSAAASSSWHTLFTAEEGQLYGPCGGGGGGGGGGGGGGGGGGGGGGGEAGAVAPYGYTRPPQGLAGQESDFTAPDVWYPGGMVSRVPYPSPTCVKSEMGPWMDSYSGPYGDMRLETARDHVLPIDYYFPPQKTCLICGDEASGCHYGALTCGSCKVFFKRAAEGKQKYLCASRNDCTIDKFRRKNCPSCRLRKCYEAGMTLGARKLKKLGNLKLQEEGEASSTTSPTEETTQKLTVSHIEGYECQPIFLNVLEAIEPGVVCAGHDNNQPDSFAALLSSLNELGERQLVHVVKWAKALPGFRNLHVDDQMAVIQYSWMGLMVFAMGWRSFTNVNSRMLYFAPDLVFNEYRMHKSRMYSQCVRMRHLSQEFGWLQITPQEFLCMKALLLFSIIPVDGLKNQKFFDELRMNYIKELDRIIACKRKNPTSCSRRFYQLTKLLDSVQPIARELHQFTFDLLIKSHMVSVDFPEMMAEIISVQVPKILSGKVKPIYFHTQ
Method: Western blot analysis was performed essentially as described previously. The cells treated with indicated compounds were lysed in Radioimmunoprecipitation Assay Protein Lysis and Extraction Buffer (25 mmol/L Tris.HCl, pH 7.6, 150 mmol/L NaCl, 1% Nonidet P-40, 1% sodium deoxycholate, and 0.1% sodium dodecyl sulfate) containing proteinase inhibitor cocktail (Roche Diagnostics, Mannheim, Germany). Equal amounts of total protein were electrophoresed through 10% SDS-polyacrylamide gels after determination of protein concentration by BCA assay (Fisher Scientific, Pittsburgh, PA). The separated protein bands were transferred onto PVDF membranes (GE Healthcare Life Sciences, Marlborough, MA) and blotted against different antibodies, as indicated. The blots were scanned, and the band intensities were quantified using GelQuant.NET software provided by biochemlabsolutions.com. The relative mean intensity of target proteins was expressed after normalization to the intensity of glyceraldehyde-3-phosphate dehydrogenase bands.

STAT3 = molecular target: T2, STAT3 (Homo sapiens, UniProt P40763); assay: STAT3 degradation HiBiT assay (STAT3-HIBIT KI HeLa); conditions: STAT3-HIBIT KI HeLa cells, 24 hours
T2 construct: host or cells: HeLa (STAT3-HiBiT CRISPR knock-in clone)
Method: STAT3-HIBIT KI HeLa cell line was purchased from Promega. This cell line is a clone created by using CRISPR-Cas9 to fuse HiBIT to the 3′ end of STAT3 in HeLa cells. DMEM medium and FBS were purchased from Gibco/Thermo Fisher Scientific. STAT3 degradation was determined based on quantification of luminescent signal using Nano-Glo HiBIT Lytic Detection System. In a typical procedure, cells seeded at 20000 cells per well in 96-well white plates (Corning) were incubated with serially diluted compounds for 24 hours at 37° C. with 5% CO2. At the end of treatment, Nano-Glo HiBIT Lytic Detection reagents was added to the wells and luminescence was acquired on TECAN PSARK plate reader. Untreated cells were used as control. Data points were fit with a four-parameter equation to generate a concentration-response curve. IC50 values were calculated using a nonlinear regression analysis of the mean±SD from triplicate.

MOLM-16 = assay: Cell viability assay (CellTiter-Glo 2.0), MOLM-16; conditions: MOLM16; MOLM-16 cells
SU-DHL-1 = assay: Cell viability assay (CellTiter-Glo 2.0), SU-DHL-1; conditions: Homo sapiens, 96 h; SU-DHL-1 cells, 4 days
Method: SU-DHL-1 and SUP-M2 cell viability was determined by CellTiter-Glo 2.0 Cell Viability Assay (Promega). […] In a typical procedure, cells seeded at 1000 cells per well in 384-well white plates (Corning) were incubated with serially diluted compounds for 4 days at 37° C. with 5% CO2. At the end of treatment, CellTiter-Glo 2.0 was added to the wells and luminescence was acquired on TECAN PSARK plate reader. Untreated cells were used as control. Data points were fit with a four-parameter equation to generate a concentration-response curve. IC50 values were calculated using a nonlinear regression analysis of the mean±SD from triplicate.

T2 sequence (P40763 whole entry): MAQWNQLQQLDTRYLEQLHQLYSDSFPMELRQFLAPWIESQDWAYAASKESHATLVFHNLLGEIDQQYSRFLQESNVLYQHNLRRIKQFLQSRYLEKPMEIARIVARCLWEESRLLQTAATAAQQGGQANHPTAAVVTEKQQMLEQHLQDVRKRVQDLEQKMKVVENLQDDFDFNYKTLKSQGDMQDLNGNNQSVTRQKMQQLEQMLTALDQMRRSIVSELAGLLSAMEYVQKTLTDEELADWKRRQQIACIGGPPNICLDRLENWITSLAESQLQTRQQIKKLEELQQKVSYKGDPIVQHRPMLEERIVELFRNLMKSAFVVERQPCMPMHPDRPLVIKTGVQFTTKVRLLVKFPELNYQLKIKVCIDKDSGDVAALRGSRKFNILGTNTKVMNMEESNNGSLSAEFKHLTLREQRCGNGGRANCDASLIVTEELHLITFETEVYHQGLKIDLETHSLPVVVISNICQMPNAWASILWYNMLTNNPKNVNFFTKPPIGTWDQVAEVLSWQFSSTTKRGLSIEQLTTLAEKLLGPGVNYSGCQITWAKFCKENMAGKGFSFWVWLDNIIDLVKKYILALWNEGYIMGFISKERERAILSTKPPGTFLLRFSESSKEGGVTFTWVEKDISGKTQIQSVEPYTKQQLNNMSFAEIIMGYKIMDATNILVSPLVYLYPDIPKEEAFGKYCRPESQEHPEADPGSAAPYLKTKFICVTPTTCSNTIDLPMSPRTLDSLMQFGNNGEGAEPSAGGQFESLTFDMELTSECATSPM

SMILES | Dmax (androgen receptor (AR)) [%] | DC50 (STAT3) [nM] | Dmax (STAT3) [%] | IC50 (MOLM-16) [nM] | IC50 (SU-DHL-1) [nM]
C[C@H]1CC2(CCN(c3ccc(C(=O)N4CCC(CN5CCC6(CC5)COc5c6ccc6c5CN([C@H]5CCC(=O)NC5=O)C6=O)CC4)cc3)CC2)CN1c1ccc(C#N)c(Cl)c1 [ARD-1, 2-chloro-4-((S)-8-(4-(4-((7-((S)-2,6-dioxopiperidin-3-yl)-6-oxo-7,8-dihydro-2H,6H-spiro[furo[2,3-e]isoindole-3,4′-piperidin]-1′-yl)methyl)piperidine-1-carbonyl)phenyl)-3-methyl-2,8-diazaspiro[4.5]decan-2-yl)benzonitrile] | > 75 |  |  |  | 
C[C@@H]1N(c2ccc(C#N)c(Cl)c2)CCC12CCN(c1ccc(C(=O)N3CCC(CN4CCC5(CC4)COc4c5ccc5c4CN([C@H]4CCC(=O)NC4=O)C5=O)CC3)cc1)CC2 [ARD-2] | > 75 |  |  |  | 
N#Cc1ccc(O[C@H]2CC[C@H](NC(=O)c3ccc(N4CCC(CN5CCC6(CC5)COc5c6ccc6c5CN([C@H]5CCC(=O)NC5=O)C6=O)CC4)nn3)CC2)cc1Cl [ARD-3, N-((1r,4r)-4-(3-chloro-4-cyanophenoxy)cyclohexyl)-6-(4-((7-((S)-2,6-dioxopiperidin-3-yl)-6-oxo-7,8-dihydro-2H,6H-spiro[furo[2,3-e]isoindole-3,4′-piperidin]-1′-yl)methyl)piperidin-1-yl)pyridazine-3-carboxamide] | > 75 |  |  |  | 
CN(c1ccc(C#N)c(Cl)c1)[C@H]1CC[C@H](NC(=O)c2ccc(N3CCC(CN4CCC5(CC4)COc4c5ccc5c4CN([C@H]4CCC(=O)NC4=O)C5=O)CC3)nn2)CC1 [ARD-4, N-((1r,4r)-4-((3-chloro-4-cyanophenyl)(methyl)amino)cyclohexyl)-6-(4-((7-((S)-2,6-dioxopiperidin-3-yl)-6-oxo-7,8-dihydro-2H,6H-spiro[furo[2,3-e]isoindole-3,4′-piperidin]-1′-yl)methyl)piperidin-1-yl)pyridazine-3-carboxamide] | > 75 |  |  |  | 
CS(=O)(=O)c1cccc(OC[C@H](CCC(N)=O)NC(=O)[C@@H]2CC[C@@H]3CCN(C(=O)CCCCN4CCC5(CC4)COc4c5ccc5c4CN([C@H]4CCC(=O)NC4=O)C5=O)C[C@H](NC(=O)c4cc5cc(C(F)(F)P(=O)(O)O)ccc5s4)C(=O)N32)c1 [STD 71, ((2-(((5S,8S,10aR)-8-(((S)-5-amino-1-(3-(methylsulfonyl)phenoxy)-5-oxopentan-2-yl)carbamoyl)-3-(5-(7-((S)-2,6-dioxopiperidin-3-yl)-6-oxo-7,8-dihydro-2H,6H-spiro[furo[2,3-e]isoindole-3,4′-piperidin]-1′-yl)pentanoyl)-6-oxodecahydropyrrolo[1,2-a][1,5]diazocin-5-yl)carbamoyl)benzo[b]thiophen-5-yl)difluoromethyl)phosphonic acid] |  | 100 to 1000 | ≥ 80 | 100 to 1000 | 1000 to 10000
CC(C)S(=O)(=O)c1ccc(CNC(=O)[C@H](CCC(N)=O)NC(=O)[C@@H]2CC[C@@H]3CCN(C(=O)CCCCN4CCC5(CC4)COc4c5ccc5c4CN([C@H]4CCC(=O)NC4=O)C5=O)C[C@H](NC(=O)c4cc5cc(C(F)(F)P(=O)(O)O)ccc5s4)C(=O)N32)cc1 [STD 80, ((2-(((5S,8S,10aR)-8-(((S)-5-amino-1-((4-(isopropylsulfonyl)benzyl)amino)-1,5-dioxopentan-2-yl)carbamoyl)-3-(5-(7-((S)-2,6-dioxopiperidin-3-yl)-6-oxo-7,8-dihydro-2H,6H-spiro[furo[2,3-e]isoindole-3,4′-piperidin]-1′-yl)pentanoyl)-6-oxodecahydropyrrolo[1,2-a][1,5]diazocin-5-yl)carbamoyl)benzo[b]thiophen-5-yl)difluoromethyl)phosphonic acid] |  | 100 to 1000 | ≥ 80 | 100 to 1000 | 1000 to 10000
CS(=O)(=O)c1cccc(OC[C@H](CCC(N)=O)NC(=O)[C@@H]2CC[C@@H]3CCN(C(=O)CCCCN4CCC5(CC4)COc4c5ccc5c4CN([C@H]4CCC(=O)NC4=O)C5=O)C[C@H](NC(=O)c4cc5cc(C(=O)P(=O)(O)O)ccc5[nH]4)C(=O)N32)c1 [STD 84, (2-(((5S,8S,10aR)-8-(((S)-5-amino-1-(3-(methylsulfonyl)phenoxy)-5-oxopentan-2-yl)carbamoyl)-3-(5-(7-((S)-2,6-dioxopiperidin-3-yl)-6-oxo-7,8-dihydro-2H,6H-spiro[furo[2,3-e]isoindole-3,4′-piperidin]-1′-yl)pentanoyl)-6-oxodecahydropyrrolo[1,2-a] [1,5]diazocin-5-yl)carbamoyl)-1H-indole-5-carbonyl)phosphonic acid] |  | 100 to 1000 | ≥ 80 | 100 to 1000 | 1000 to 10000
CCS(=O)(=O)c1ccc(CNC(=O)[C@H](CCC(N)=O)NC(=O)[C@@H]2CC[C@@H]3CCN(C(=O)CCCCN4CCC5(CC4)COc4c5ccc5c4CN([C@H]4CCC(=O)NC4=O)C5=O)C[C@H](NC(=O)c4cc5cc(C(=O)P(=O)(O)O)ccc5[nH]4)C(=O)N32)cc1 [STD 85, (2-(((5S,8S,10aR)-8-(((S)-5-amino-1-((4-(ethylsulfonyl)benzyl)amino)-1,5-dioxopentan-2-yl)carbamoyl)-3-(5-(7-((S)-2,6-dioxopiperidin-3-yl)-6-oxo-7,8-dihydro-2H,6H-spiro[furo[2,3-e]isoindole-3,4′-piperidin]-1′-yl)pentanoyl)-6-oxodecahydropyrrolo[1,2-a] [1,5]diazocin-5-yl)carbamoyl)-1H-indole-5-carbonyl)phosphonic acid] |  | 100 to 1000 | ≥ 80 | 100 to 1000 | 1000 to 10000
CC(C)S(=O)(=O)c1ccc(CNC(=O)[C@H](CCC(N)=O)NC(=O)[C@@H]2CC[C@@H]3CCN(C(=O)CCCCN4CCC5(CC4)COc4c5ccc5c4CN([C@H]4CCC(=O)NC4=O)C5=O)C[C@H](NC(=O)c4cc5cc(C(=O)P(=O)(O)O)ccc5[nH]4)C(=O)N32)cc1 [STD 86, (2-(((5S,8S,10aR)-8-(((S)-5-amino-1-((4-(isopropylsulfonyl)benzyl)amino)-1,5-dioxopentan-2-yl)carbamoyl)-3-(5-(7-((S)-2,6-dioxopiperidin-3-yl)-6-oxo-7,8-dihydro-2H,6H-spiro[furo[2,3-e]isoindole-3,4′-piperidin]-1′-yl)pentanoyl)-6-oxodecahydropyrrolo[1,2-a] [1,5]diazocin-5-yl)carbamoyl)-1H-indole-5-carbonyl)phosphonic acid] |  | 100 to 1000 | ≥ 80 | 100 to 1000 | 1000 to 10000
